Experimental data as given in article doi:10.1101/2020.06.11.145995v1 (biorxiv, 2020).
Read-outs that look alike come from different tables or passages of the source. Values belong to the compound of their own block, whether it stands above or below them.

Assays:
Assay in all cases: biochemical
STK33 = STK33 (Homo sapiens, UniProt Q9BYT3)
GCN2(Kin.Dom.2,S808G) = GCN2(Kin.Dom.2,S808G) (Homo sapiens, UniProt Q9P2K8, S808G)
[1] = target: JAK1(JH1domain-catalytic) (Homo sapiens, UniProt P23458)
ABL1-phosphorylated = ABL1-phosphorylated (Homo sapiens, UniProt P00519)
TRKB = TRKB (Homo sapiens, UniProt Q16620)
PYK2 = PYK2 (Homo sapiens, UniProt Q14289)
Chain of PYK2 (Q14289 whole entry): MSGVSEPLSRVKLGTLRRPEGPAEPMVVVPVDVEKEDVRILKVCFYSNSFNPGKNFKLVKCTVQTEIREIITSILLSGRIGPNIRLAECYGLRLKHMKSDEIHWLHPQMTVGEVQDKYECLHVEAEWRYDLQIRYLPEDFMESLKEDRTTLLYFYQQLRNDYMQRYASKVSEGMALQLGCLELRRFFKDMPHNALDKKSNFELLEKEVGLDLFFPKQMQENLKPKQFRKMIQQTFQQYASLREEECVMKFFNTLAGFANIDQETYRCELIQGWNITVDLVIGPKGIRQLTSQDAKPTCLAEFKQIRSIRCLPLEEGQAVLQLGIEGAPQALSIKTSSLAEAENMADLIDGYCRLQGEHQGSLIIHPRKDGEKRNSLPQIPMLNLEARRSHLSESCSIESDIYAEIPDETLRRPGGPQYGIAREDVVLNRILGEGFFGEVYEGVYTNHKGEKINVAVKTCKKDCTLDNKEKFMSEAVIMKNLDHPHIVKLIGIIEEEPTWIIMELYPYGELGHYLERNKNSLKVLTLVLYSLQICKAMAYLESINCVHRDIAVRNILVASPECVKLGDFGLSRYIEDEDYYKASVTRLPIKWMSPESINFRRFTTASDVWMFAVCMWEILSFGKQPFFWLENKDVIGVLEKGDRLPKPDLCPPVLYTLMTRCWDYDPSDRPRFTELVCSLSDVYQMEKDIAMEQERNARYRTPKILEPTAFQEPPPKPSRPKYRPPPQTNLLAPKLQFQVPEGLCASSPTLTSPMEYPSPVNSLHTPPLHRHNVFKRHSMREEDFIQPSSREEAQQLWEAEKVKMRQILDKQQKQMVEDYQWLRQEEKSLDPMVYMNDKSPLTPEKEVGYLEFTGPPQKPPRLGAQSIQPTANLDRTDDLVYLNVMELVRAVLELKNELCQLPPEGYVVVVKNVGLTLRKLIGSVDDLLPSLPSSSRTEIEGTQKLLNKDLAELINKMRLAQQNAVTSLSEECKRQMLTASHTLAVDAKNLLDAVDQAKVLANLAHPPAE

PIK3CA(E545A) = PIK3CA(E545A) (Homo sapiens, UniProt P42336, E545A)
PLK1 = PLK1 (Homo sapiens, UniProt P53350)
Chain of PLK1 (P53350 whole entry): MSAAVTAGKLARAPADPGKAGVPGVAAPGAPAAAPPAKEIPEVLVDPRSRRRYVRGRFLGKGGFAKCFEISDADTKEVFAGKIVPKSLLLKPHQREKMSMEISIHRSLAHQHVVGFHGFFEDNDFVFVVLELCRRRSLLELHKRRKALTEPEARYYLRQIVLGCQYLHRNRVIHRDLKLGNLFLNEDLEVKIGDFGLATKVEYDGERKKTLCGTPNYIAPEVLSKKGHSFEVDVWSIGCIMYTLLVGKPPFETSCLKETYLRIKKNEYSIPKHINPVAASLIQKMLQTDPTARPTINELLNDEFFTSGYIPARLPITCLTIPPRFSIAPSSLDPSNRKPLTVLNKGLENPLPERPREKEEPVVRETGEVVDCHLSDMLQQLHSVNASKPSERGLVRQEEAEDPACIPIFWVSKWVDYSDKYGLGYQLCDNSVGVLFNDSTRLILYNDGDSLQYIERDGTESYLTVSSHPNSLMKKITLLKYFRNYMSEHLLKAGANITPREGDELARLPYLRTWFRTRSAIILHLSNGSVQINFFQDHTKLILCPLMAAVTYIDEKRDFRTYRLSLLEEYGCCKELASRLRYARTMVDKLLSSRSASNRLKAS

YANK2 = YANK2 (Homo sapiens, UniProt Q9NY57)
Chain of YANK2 (Q9NY57 whole entry): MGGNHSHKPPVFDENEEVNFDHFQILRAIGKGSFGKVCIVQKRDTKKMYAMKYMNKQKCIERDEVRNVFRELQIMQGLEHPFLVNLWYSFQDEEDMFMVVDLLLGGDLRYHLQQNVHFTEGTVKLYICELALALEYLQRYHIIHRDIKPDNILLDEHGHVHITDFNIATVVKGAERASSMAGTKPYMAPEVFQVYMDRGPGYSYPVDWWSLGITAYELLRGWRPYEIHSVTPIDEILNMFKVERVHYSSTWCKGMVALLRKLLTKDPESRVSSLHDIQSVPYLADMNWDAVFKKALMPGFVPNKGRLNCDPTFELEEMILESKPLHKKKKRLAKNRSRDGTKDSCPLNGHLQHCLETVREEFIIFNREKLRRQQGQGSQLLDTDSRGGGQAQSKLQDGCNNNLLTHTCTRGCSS

PRKD3 = PRKD3 (Homo sapiens, UniProt O94806)
NEK11 = NEK11 (Homo sapiens, UniProt Q8NG66)
SRPK3 = SRPK3 (Homo sapiens, UniProt Q9UPE1)
Chain of SRPK3 (Q9UPE1 whole entry): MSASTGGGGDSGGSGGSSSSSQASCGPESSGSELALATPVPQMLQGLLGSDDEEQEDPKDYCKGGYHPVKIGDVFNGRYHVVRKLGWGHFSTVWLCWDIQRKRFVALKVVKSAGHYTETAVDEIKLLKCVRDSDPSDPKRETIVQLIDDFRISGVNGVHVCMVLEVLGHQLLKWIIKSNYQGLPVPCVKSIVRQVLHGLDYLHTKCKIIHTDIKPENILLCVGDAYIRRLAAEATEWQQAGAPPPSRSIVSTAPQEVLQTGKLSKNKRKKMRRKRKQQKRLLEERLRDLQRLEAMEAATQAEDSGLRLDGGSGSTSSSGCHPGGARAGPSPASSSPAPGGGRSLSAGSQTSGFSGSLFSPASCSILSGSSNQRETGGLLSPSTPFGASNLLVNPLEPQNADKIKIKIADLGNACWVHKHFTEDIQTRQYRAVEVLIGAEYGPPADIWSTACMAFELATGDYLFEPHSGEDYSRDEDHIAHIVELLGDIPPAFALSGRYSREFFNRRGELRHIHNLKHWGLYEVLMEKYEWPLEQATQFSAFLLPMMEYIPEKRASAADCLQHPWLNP

ROCK1 = ROCK1 (Homo sapiens, UniProt Q13464)
PRKX = PRKX (Homo sapiens, UniProt P51817)
Chain of PRKX (P51817 whole entry): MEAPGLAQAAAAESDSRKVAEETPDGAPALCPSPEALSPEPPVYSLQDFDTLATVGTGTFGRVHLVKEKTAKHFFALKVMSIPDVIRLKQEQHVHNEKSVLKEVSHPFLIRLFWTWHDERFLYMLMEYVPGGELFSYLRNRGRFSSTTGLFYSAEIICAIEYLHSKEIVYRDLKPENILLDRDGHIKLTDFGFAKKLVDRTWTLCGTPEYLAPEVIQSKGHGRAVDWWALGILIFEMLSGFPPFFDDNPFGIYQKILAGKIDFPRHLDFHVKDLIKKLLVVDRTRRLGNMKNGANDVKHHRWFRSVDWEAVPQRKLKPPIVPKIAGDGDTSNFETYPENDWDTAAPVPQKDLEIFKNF

SNARK = SNARK (Homo sapiens, UniProt Q9H093)
Chain of SNARK (Q9H093 whole entry): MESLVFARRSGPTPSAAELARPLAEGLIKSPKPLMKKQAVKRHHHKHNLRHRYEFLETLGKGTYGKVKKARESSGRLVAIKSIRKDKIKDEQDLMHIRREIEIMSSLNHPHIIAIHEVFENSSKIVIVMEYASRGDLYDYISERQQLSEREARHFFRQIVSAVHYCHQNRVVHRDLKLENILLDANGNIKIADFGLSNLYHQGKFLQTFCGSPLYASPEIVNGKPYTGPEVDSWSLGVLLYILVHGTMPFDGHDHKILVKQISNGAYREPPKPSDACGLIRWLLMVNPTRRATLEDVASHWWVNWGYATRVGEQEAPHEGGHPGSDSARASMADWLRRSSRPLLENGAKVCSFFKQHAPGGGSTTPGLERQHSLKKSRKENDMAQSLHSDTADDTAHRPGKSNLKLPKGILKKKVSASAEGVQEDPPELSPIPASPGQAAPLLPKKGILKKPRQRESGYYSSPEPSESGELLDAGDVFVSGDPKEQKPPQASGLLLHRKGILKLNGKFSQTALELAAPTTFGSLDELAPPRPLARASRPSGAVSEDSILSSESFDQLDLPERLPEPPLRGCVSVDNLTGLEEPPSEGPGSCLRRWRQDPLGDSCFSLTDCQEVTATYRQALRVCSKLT

PAK3 = PAK3 (Homo sapiens, UniProt O75914)
RPS6KA5 = RPS6KA5 (Homo sapiens, UniProt O75582)
Chain of RPS6KA5 (O75582 whole entry): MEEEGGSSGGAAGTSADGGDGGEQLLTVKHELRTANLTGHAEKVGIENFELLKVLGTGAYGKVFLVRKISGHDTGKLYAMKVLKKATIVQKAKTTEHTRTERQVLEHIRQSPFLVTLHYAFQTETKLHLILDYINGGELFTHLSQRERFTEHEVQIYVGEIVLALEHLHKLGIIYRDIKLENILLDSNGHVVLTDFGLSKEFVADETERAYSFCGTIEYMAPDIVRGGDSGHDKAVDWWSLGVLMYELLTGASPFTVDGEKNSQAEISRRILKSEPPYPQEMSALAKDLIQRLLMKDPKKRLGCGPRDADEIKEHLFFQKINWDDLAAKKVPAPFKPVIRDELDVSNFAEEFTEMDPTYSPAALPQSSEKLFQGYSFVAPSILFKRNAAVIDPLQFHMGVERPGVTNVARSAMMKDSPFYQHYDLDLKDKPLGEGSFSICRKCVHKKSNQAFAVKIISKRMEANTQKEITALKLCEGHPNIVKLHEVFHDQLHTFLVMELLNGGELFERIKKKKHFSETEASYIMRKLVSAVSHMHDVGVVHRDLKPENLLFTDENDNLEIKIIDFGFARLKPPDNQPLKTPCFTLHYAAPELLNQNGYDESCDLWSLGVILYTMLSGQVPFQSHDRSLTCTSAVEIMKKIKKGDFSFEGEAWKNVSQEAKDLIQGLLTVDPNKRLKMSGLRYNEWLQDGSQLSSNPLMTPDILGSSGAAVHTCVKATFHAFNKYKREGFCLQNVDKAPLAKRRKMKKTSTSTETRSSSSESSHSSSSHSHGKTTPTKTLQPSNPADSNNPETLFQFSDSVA

TNNI3K = TNNI3K (Homo sapiens, UniProt Q59H18)
TLK2 = TLK2 (Homo sapiens, UniProt Q86UE8)
ULK2 = ULK2 (Homo sapiens, UniProt Q8IYT8)
NDR1 = NDR1 (Homo sapiens, UniProt Q15208)
Chain of NDR1 (Q15208 whole entry): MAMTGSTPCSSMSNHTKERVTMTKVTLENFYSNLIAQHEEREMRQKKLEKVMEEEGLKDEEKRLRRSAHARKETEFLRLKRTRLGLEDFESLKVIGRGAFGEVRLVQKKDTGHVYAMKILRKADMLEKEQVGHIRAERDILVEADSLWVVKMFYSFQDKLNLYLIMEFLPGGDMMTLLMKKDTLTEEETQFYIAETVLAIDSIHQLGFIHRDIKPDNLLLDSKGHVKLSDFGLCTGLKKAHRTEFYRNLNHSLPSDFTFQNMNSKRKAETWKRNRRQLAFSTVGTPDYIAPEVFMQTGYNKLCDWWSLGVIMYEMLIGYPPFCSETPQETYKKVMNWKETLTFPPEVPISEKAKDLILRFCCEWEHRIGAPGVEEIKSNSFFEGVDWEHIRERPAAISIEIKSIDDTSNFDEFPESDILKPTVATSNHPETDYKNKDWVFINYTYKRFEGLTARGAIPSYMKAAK

[2] = target: ABL1(H396P)-phosphorylated (Homo sapiens, UniProt P00519, H396P)
[3] = target: ABL1(F317I)-nonphosphorylated (Homo sapiens, UniProt P00519, F317I)
[4] = target: ABL1(T315I)-nonphosphorylated (Homo sapiens, UniProt P00519, T315I)
[5] = target: ABL1(F317L)-nonphosphorylated (Homo sapiens, UniProt P00519, F317L)
[6] = target: ABL1(H396P)-nonphosphorylated (Homo sapiens, UniProt P00519, H396P)
[7] = target: JAK2(JH1domain-catalytic) (Homo sapiens, UniProt O60674)
[8] = target: JAK3(JH1domain-catalytic) (Homo sapiens, UniProt P52333)
[9] = read-out: CPT-1-70-1 (1μM) % control
[10] = read-out: CPT-1-70-1 (1uM) % control
[11] = read-out: HYJ-2-002-1 (1μM) % control
[12] = read-out: HYJ-2-002-1 (1uM) % control

Compound: CN1CCN(c2ccc(Nc3nc(Oc4ccc(NC(=O)CCl)cc4)c4cc[nH]c4n3)cc2)CC1 [CPT1-70-1]
remaining activity at 1 µM (STK33; [9]): 10% | remaining activity at 1 µM (GCN2(Kin.Dom.2,S808G); [10]): 13% | remaining activity at 1 µM [1, 10]: 77% | remaining activity at 1 µM (ABL1-phosphorylated; [10]): 51% | remaining activity at 1 µM (TRKB; [9]): 28% | remaining activity at 1 µM (PYK2; [9]): 66% | remaining activity at 1 µM (PIK3CA(E545A); [9]): 79% | remaining activity at 1 µM (PLK1; [9]): 100% | remaining activity at 1 µM (YANK2; [9]): 100% | remaining activity at 1 µM (PRKD3; [9]): 54% | remaining activity at 1 µM (NEK11; [9]): 95% | remaining activity at 1 µM (SRPK3; [9]): 100% | remaining activity at 1 µM (ROCK1; [9]): 29% | remaining activity at 1 µM (PRKX; [9]): 100% | remaining activity at 1 µM (SNARK; [9]): 8.5% | remaining activity at 1 µM (PAK3; [9]): 50% | remaining activity at 1 µM (RPS6KA5; read-out: CPT-1-70-1 (1μM) % control, Kin.Dom.1-N-terminal): 100% | remaining activity at 1 µM (TNNI3K; [9]): 100% | remaining activity at 1 µM (TLK2; [9]): 100% | remaining activity at 1 µM (ULK2; [9]): 29% | remaining activity at 1 µM (NDR1; [9]): 37% | remaining activity at 1 µM [2, 10]: 100% | remaining activity at 1 µM [3, 10]: 100% | remaining activity at 1 µM [4, 10]: 46% | remaining activity at 1 µM [5, 10]: 100% | remaining activity at 1 µM [6, 10]: 7.2% | remaining activity at 1 µM [7, 10]: 1.2% | remaining activity at 1 µM [8, 10]: 0%

remaining activity at 1 µM (STK33; [11]): 66% | remaining activity at 1 µM (GCN2(Kin.Dom.2,S808G); [12]): 14% | remaining activity at 1 µM [1, 12]: 41% | remaining activity at 1 µM (ABL1-phosphorylated; [12]): 0.1% | remaining activity at 1 µM (TRKB; [11]): 4.2% | remaining activity at 1 µM (PYK2; [11]): 21% | remaining activity at 1 µM (PIK3CA(E545A); [11]): 100% | remaining activity at 1 µM (PLK1; [11]): 100% | remaining activity at 1 µM (YANK2; [11]): 100% | remaining activity at 1 µM (PRKD3; [11]): 67% | remaining activity at 1 µM (NEK11; [11]): 37% | remaining activity at 1 µM (SRPK3; [11]): 90% | remaining activity at 1 µM (ROCK1; [11]): 98% | remaining activity at 1 µM (PRKX; [11]): 78% | remaining activity at 1 µM (SNARK; [11]): 100% | remaining activity at 1 µM (PAK3; [11]): 100% | remaining activity at 1 µM (RPS6KA5; read-out: HYJ-2-002-1 (1μM) % control, Kin.Dom.1-N-terminal): 76% | remaining activity at 1 µM (RPS6KA5; read-out: HYJ-2-002-1 (1μM) % control, Kin.Dom.2-C-terminal): 100% | remaining activity at 1 µM (TNNI3K; [11]): 6.6% | remaining activity at 1 µM (TLK2; [11]): 97% | remaining activity at 1 µM (ULK2; [11]): 88% | remaining activity at 1 µM (NDR1; [11]): 100% | remaining activity at 1 µM [2, 12]: 0.1% | remaining activity at 1 µM [3, 12]: 0% | remaining activity at 1 µM [4, 12]: 9% | remaining activity at 1 µM [5, 12]: 0% | remaining activity at 1 µM [6, 12]: 0% | remaining activity at 1 µM [7, 12]: 57% | remaining activity at 1 µM [8, 12]: 2.4%
Compound: CCN1CCN(Cc2ccc(NC(=O)c3ccc(C)c(CCc4cnc5[nH]ccc5c4OC)c3)cc2C(F)(F)F)CC1 [HYJ-2-002-1]
